pEC50: −log10 of the molar value. Read-outs that look alike come from different tables or passages of the source. Numbered stars: 1 amine (or outer) side, 2 acyl side, 3 side chain; on linkers, the order of the positions; unused ones are H or OH. Square brackets hold non-standard residues; d marks the D form. Side chains are listed from the residue outwards. Peptide text beside a SMILES is read from it. * marks the point of attachment. C18 diacid = O=C(O)CCCCCCCCCCCCCCCCC(=O)*; γGlu = O=C(O)[C@H](CCC(=O)[*:2])N[*:1]; Palmitoyl = CCCCCCCCCCCCCCCC(=O)*; αMeF = C[C@](N)(Cc1ccccc1)C(=O)O; αMeK = C[C@](N)(CCCCN)C(=O)O; αMeS = C[C@](N)(CO)C(=O)O; AEEA = NCCOCCOCC(=O)O; Aib = CC(C)(N)C(=O)O
How the values were obtained:
Assay type in all cases: cell-based
[1] = target: T1, GLP-1R (INS1e assay) (Rattus norvegicus, UniProt P32301); assay: INS1e assay, cAMP activity at GLP-1R; settings: mono-lipidated peptides; for EC50: mean of n1 and n2, read-out: INS1e assay EC50 Mean pM GLP-1R
T1 construct: endogenous in cells; host or cells: INS-1E cells
T1 sequence (P32301 22-463): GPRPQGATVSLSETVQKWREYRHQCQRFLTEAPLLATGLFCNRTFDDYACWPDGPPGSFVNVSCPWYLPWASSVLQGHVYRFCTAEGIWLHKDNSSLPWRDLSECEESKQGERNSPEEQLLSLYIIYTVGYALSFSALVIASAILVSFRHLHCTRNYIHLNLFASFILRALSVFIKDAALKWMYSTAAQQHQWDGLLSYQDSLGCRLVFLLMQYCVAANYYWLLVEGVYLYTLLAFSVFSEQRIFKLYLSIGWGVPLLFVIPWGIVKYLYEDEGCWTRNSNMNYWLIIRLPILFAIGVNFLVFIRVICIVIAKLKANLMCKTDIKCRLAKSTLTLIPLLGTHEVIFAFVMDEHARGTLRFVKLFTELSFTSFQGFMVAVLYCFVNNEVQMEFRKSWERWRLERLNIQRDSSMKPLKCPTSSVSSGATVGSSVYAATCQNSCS
Outline: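 cAMP was quantified by two-step HTRF, using anti-cAMP cryptate donor and cAMP-d2 acceptor, each diluted 1/20 in conjugate and lysis buffer. EC50 values of the synthetic peptides were derived from the cAMP readout.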

[2] = target: T2, human glucagon receptor (GCGR) (Homo sapiens, UniProt P47871); assay: cAMP assay, human GCGR cells; settings: cAMP assay
T2 construct: expressed in transfected cells
T2 sequence (P47871 26-477): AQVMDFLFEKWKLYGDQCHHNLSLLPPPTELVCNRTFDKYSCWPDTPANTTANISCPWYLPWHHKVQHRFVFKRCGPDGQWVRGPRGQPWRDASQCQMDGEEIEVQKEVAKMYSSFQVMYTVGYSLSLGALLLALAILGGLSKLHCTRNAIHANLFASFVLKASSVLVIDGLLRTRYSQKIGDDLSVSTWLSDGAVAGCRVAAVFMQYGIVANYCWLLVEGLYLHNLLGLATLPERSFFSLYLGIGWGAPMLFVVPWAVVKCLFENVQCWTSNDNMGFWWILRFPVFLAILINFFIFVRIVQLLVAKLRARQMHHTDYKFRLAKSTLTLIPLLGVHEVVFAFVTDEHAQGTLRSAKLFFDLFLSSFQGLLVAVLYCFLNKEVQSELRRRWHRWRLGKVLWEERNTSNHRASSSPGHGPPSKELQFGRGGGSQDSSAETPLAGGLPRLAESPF
Outline: (§1)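 Peptide-stimulated cAMP measured by two-step HTRF after a 30 min room-temperature incubation with receptor-expressing cells (hGLP-1R, hGIPR at 1×10^5 cells/ml; hGCGR at 2×10^5 cells/ml). Duplicate dilutions; EC50 from 4-parameter logistic fit of % Delta F.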

[3] = target: T3, human glucose-dependent insulinotropic peptide receptor (GIPR) (Homo sapiens, UniProt P48546); assay: cAMP assay, human GIPR cells; settings: cAMP assay
T3 construct: expressed in transfected cells
T3 sequence (P48546 22-466): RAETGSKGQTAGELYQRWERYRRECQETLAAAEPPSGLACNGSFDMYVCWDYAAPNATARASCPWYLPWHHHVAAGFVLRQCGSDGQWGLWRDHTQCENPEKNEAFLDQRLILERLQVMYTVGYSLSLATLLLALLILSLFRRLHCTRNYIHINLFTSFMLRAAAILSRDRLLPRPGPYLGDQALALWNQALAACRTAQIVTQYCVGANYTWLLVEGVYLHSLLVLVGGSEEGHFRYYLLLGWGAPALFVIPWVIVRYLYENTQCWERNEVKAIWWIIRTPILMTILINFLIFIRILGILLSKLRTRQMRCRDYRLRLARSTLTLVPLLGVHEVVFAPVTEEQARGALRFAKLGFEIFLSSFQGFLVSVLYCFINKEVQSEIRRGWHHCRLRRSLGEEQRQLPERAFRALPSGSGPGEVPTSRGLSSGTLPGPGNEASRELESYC
Outline: as §1

[4] = target: T4, human GLP-1 receptor (GLP-1R) (Homo sapiens, UniProt P43220); assay: cAMP assay, human GLP-1R cells; settings: for pEC50: cAMP assay; for EC50: mean of n1 and n2, read-out: Mean pM GLP-1R
T4 construct: expressed in transfected cells
T4 sequence (P43220 24-463): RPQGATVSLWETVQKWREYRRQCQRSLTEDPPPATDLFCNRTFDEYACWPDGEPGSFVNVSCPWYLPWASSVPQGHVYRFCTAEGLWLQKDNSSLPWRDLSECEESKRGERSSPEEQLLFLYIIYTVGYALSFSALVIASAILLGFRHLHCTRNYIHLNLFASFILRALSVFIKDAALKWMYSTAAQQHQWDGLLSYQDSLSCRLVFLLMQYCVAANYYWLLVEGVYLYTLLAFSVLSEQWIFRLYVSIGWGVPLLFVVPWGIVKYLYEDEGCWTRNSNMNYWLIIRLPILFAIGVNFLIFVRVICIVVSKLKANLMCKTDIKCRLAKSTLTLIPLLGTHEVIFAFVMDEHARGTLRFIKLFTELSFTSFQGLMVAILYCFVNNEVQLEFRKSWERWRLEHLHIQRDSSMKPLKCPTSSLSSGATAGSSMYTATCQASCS
Outline: as §1

[5] = replicate n1, read-out: INS1e assay EC50 GLP-1R n1
[6] = replicate n2, read-out: INS1e assay EC50 GLP-1R n2
[7] = first determination (n1), read-out: Primary assay EC50 Gluc-R (n1)
[8] = second determination (n2), read-out: Primary assay EC50 Gluc-R (n2)
[9] = first determination (n1), read-out: Primary assay EC50 GIP-R (n1)
[10] = second determination (n2), read-out: Primary assay EC50 GIP-R (n2)
[11] = first determination (n1), read-out: Primary assay EC50 GLP-1R n1
[12] = second determination (n2), read-out: Primary assay EC50 GLP-1R n2

Compound	EC50 [1] [pM]	pEC50 [1, 5]	pEC50 [1, 6]	pEC50 [2, 7]	pEC50 [2, 8]	pEC50 [3, 9]	pEC50 [3, 10]	pEC50 [4, 11]	pEC50 [4, 12]	EC50 [4] [pM]
CCCCCCCCCCCCCCCC(=O)N[C@@H](CCC(=O)NCCCC[C@H](NC(=O)[C@](C)(CCCCN)NC(=O)[C@@H](NC(=O)[C@@H](NC(=O)[C@](C)(Cc1ccccc1)NC(=O)[C@H](C)NC(=O)[C@@H](NC(=O)[C@](C)(Cc1ccccc1)NC(=O)[C@H](CCC(=O)O)NC(=O)[C@](C)(CCCCN)NC(=O)[C@H](C)NC(=O)[C@H](C)NC(=O)[C@H](CCC(=O)O)NC(=O)CNC(=O)[C@H](CCC(=O)O)NC(=O)[C@H](CC(C)C)NC(=O)[C@](C)(Cc1ccccc1)NC(=O)[C@H](CO)NC(=O)[C@](C)(CO)NC(=O)[C@@H](NC(=O)[C@H](CC(=O)O)NC(=O)[C@H](CO)NC(=O)[C@@H](NC(=O)[C@](C)(Cc1ccccc1)NC(=O)[C@H](CO)NC(=O)CNC(=O)[C@H](CCC(=O)O)NC(=O)C(C)(C)NC(=O)[C@@H](N)Cc1c[nH]cn1)[C@@H](C)O)C(C)C)[C@@H](C)CC)C(C)C)C(C)C)C(=O)NCC(N)=O)C(=O)O [compound 71] (H-H[Aib]EGS[αMeF]TSDV[αMeS]S[αMeF]LEGEAA[αMeK]E[αMeF]IA[αMeF]VV[αMeK]K([γGlu-Palmitoyl])G-NH2)	723	9.22	9.08	≤ 7.57	≤ 7.57	≤ 7.57	≤ 7.57	11.21	11.10	7.1
CCCCCCCCCCCCCCCC(=O)N[C@@H](CCC(=O)NCCCC[C@H](NC(=O)[C@](C)(Cc1ccccc1)NC(=O)[C@H](C)NC(=O)[C@@H](NC(=O)[C@](C)(Cc1ccccc1)NC(=O)[C@H](CCC(=O)O)NC(=O)[C@](C)(CCCCN)NC(=O)[C@H](C)NC(=O)[C@H](C)NC(=O)[C@H](CCC(=O)O)NC(=O)CNC(=O)[C@H](CCC(=O)O)NC(=O)[C@H](CC(C)C)NC(=O)[C@](C)(Cc1ccccc1)NC(=O)[C@H](CO)NC(=O)[C@](C)(CO)NC(=O)[C@@H](NC(=O)[C@H](CC(=O)O)NC(=O)[C@H](CO)NC(=O)[C@@H](NC(=O)[C@](C)(Cc1ccccc1)NC(=O)[C@H](CO)NC(=O)CNC(=O)[C@H](CCC(=O)O)NC(=O)C(C)(C)NC(=O)[C@@H](N)Cc1c[nH]cn1)[C@@H](C)O)C(C)C)[C@@H](C)CC)C(=O)N[C@H](C(=O)N[C@@](C)(CCCCN)C(=O)NCC(=O)NCC(N)=O)C(C)C)C(=O)O [compound 74] (H-H[Aib]EGS[αMeF]TSDV[αMeS]S[αMeF]LEGEAA[αMeK]E[αMeF]IA[αMeF]K([γGlu-Palmitoyl])V[αMeK]GG-NH2)	102	10.11	9.90	≤ 7.55	≤ 7.55	≤ 7.55	≤ 7.55	11.64	–	–
CCCCCCCCCCCCCCCC(=O)N[C@@H](CCC(=O)NCCCC[C@H](NC(=O)[C@H](C)NC(=O)[C@@H](NC(=O)[C@](C)(Cc1ccccc1)NC(=O)[C@H](CCC(=O)O)NC(=O)[C@](C)(CCCCN)NC(=O)[C@H](C)NC(=O)[C@H](C)NC(=O)[C@H](CCC(=O)O)NC(=O)CNC(=O)[C@H](CCC(=O)O)NC(=O)[C@H](CC(C)C)NC(=O)[C@](C)(Cc1ccccc1)NC(=O)[C@H](CO)NC(=O)[C@](C)(CO)NC(=O)[C@@H](NC(=O)[C@H](CC(=O)O)NC(=O)[C@H](CO)NC(=O)[C@@H](NC(=O)[C@](C)(Cc1ccccc1)NC(=O)[C@H](CO)NC(=O)CNC(=O)[C@H](CCC(=O)O)NC(=O)C(C)(C)NC(=O)[C@@H](N)Cc1c[nH]cn1)[C@@H](C)O)C(C)C)[C@@H](C)CC)C(=O)N[C@H](C(=O)N[C@H](C(=O)N[C@@](C)(CCCCN)C(=O)NCC(=O)NCC(N)=O)C(C)C)C(C)C)C(=O)O [compound 75]	56	10.30	10.20	≤ 7.55	≤ 7.55	≤ 7.55	≤ 7.55	11.70	11.85	1.7
CCCCCCCCCCCCCCCC(=O)N[C@@H](CCC(=O)NCCCC[C@H](NC(=O)[C@@H](NC(=O)[C@](C)(Cc1ccccc1)NC(=O)[C@H](CCC(=O)O)NC(=O)[C@](C)(CCCCN)NC(=O)[C@H](C)NC(=O)[C@H](C)NC(=O)[C@H](CCC(=O)O)NC(=O)CNC(=O)[C@H](CCC(=O)O)NC(=O)[C@H](CC(C)C)NC(=O)[C@](C)(Cc1ccccc1)NC(=O)[C@H](CO)NC(=O)[C@](C)(CO)NC(=O)[C@@H](NC(=O)[C@H](CC(=O)O)NC(=O)[C@H](CO)NC(=O)[C@@H](NC(=O)[C@](C)(Cc1ccccc1)NC(=O)[C@H](CO)NC(=O)CNC(=O)[C@H](CCC(=O)O)NC(=O)C(C)(C)NC(=O)[C@@H](N)Cc1c[nH]cn1)[C@@H](C)O)C(C)C)[C@@H](C)CC)C(=O)N[C@@](C)(Cc1ccccc1)C(=O)N[C@H](C(=O)N[C@H](C(=O)N[C@@](C)(CCCCN)C(=O)NCC(=O)NCC(N)=O)C(C)C)C(C)C)C(=O)O [compound 76] (H-H[Aib]EGS[αMeF]TSDV[αMeS]S[αMeF]LEGEAA[αMeK]E[αMeF]IK([γGlu-Palmitoyl])[αMeF]VV[αMeK]GG-NH2; N-terminus assumed)	429	9.49	9.27	≤ 7.57	≤ 7.57	≤ 7.57	≤ 7.57	11.08	11.22	7.2

The remaining compounds from weak to strong by EC50 [1], led by results:

EC50 [1] [pM]	pEC50 [1, 5]	pEC50 [1, 6]	pEC50 [2, 7]	pEC50 [2, 8]	pEC50 [3, 9]	pEC50 [3, 10]	pEC50 [4, 11]	pEC50 [4, 12]	EC50 [4] [pM]	Compound
22100	7.72	7.60	≤ 7.59	≤ 7.59	≤ 7.59	≤ 7.59	10.18	10.40	53	CC[C@H](C)[C@H](NC(=O)[C@H](Cc1ccccc1)NC(=O)[C@H](CCC(=O)O)NC(=O)[C@H](C)NC(=O)[C@H](C)NC(=O)[C@H](C)NC(=O)[C@H](CCC(=O)O)NC(=O)CNC(=O)[C@H](CCC(=O)O)NC(=O)[C@H](CC(C)C)NC(=O)[C@](C)(Cc1ccccc1)NC(=O)[C@H](CO)NC(=O)[C@](C)(CO)NC(=O)[C@@H](NC(=O)[C@H](CC(=O)O)NC(=O)[C@H](CO)NC(=O)[C@@H](NC(=O)[C@](C)(Cc1ccccc1)NC(=O)[C@H](CO)NC(=O)CNC(=O)[C@H](CCC(=O)O)NC(=O)C(C)(C)NC(=O)[C@@H](N)Cc1c[nH]cn1)[C@@H](C)O)C(C)C)C(=O)N[C@@H](CCCCNC(=O)COCCOCCNC(=O)COCCOCCNC(=O)CC[C@H](NC(=O)CCCCCCCCCCCCCCCCC(=O)O)C(=O)O)C(=O)N[C@@H](Cc1c[nH]c2ccccc12)C(=O)N[C@H](C(=O)N[C@H](C(=O)N[C@@H](CCC(=O)O)C(=O)NCC(=O)NCC(N)=O)C(C)C)C(C)C [compound 69] (H-H[Aib]EGS[αMeF]TSDV[αMeS]S[αMeF]LEGEAAAEFIK([AEEA-AEEA-γGlu-C18 diacid])WVVEGG-NH2; N-terminus assumed)
6160	8.37	8.09	≤ 7.55	≤ 7.55	≤ 7.55	≤ 7.55	10.34	10.28	49	CCCCCCCCCCCCCCCC(=O)N[C@@H](CCC(=O)NCCCC[C@H](NC(=O)[C@@H](NC(=O)[C@@H](NC(=O)[C@](C)(Cc1ccccc1)NC(=O)[C@H](C)NC(=O)[C@@H](NC(=O)[C@](C)(Cc1ccccc1)NC(=O)[C@H](CCC(=O)O)NC(=O)[C@](C)(CCCCN)NC(=O)[C@H](C)NC(=O)[C@H](C)NC(=O)[C@H](CCC(=O)O)NC(=O)CNC(=O)[C@H](CCC(=O)O)NC(=O)[C@H](CC(C)C)NC(=O)[C@](C)(Cc1ccccc1)NC(=O)[C@H](CO)NC(=O)[C@](C)(CO)NC(=O)[C@@H](NC(=O)[C@H](CC(=O)O)NC(=O)[C@H](CO)NC(=O)[C@@H](NC(=O)[C@](C)(Cc1ccccc1)NC(=O)[C@H](CO)NC(=O)CNC(=O)[C@H](CCC(=O)O)NC(=O)C(C)(C)NC(=O)[C@@H](N)Cc1c[nH]cn1)[C@@H](C)O)C(C)C)[C@@H](C)CC)C(C)C)C(C)C)C(=O)NCC(=O)NCC(N)=O)C(=O)O [compound 72]

Source: patent US10414811B2, “Protease-resistant lipidated GLP-1 analogs” (MEDIMMUNE LIMITED, priority 2015, dated 2019)
